Results reported in patent publication US11420973B2, “Amide substituted indole compounds useful as TLR inhibitors” (BRISTOL-MYERS SQUIBB COMPANY, priority 2017, dated 2022).

Legend:
human TLR7 = human TLR7 (Homo sapiens (Human), UniProt Q9NYK1); experiment: TLR7 inhibition reporter assay (HEK-Blue SEAP reporter, gardiquimod stimulation); type: cell-based; settings: HEK-Blue cells overexpressing human TLR7, gardiquimod 7.5 μM
human TLR8 = human TLR8 (Homo sapiens (Human), UniProt Q9NR97); experiment: TLR8 inhibition reporter assay (HEK-Blue SEAP reporter, R848 stimulation); settings: read-out: TLR8 IC50; HEK-Blue cells overexpressing human TLR8, R848 15.9 μM, SEAP reporter;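 note: SEAP driven by IFN-β minimal promoter with NF-κB and AP-1 sites, 22 h incubation, compounds 0.05 nM–50 µM, inhibition scaled between agonist plus DMSO and reference inhibitor wells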
Sequence of human TLR8 (Q9NR97 27-1041): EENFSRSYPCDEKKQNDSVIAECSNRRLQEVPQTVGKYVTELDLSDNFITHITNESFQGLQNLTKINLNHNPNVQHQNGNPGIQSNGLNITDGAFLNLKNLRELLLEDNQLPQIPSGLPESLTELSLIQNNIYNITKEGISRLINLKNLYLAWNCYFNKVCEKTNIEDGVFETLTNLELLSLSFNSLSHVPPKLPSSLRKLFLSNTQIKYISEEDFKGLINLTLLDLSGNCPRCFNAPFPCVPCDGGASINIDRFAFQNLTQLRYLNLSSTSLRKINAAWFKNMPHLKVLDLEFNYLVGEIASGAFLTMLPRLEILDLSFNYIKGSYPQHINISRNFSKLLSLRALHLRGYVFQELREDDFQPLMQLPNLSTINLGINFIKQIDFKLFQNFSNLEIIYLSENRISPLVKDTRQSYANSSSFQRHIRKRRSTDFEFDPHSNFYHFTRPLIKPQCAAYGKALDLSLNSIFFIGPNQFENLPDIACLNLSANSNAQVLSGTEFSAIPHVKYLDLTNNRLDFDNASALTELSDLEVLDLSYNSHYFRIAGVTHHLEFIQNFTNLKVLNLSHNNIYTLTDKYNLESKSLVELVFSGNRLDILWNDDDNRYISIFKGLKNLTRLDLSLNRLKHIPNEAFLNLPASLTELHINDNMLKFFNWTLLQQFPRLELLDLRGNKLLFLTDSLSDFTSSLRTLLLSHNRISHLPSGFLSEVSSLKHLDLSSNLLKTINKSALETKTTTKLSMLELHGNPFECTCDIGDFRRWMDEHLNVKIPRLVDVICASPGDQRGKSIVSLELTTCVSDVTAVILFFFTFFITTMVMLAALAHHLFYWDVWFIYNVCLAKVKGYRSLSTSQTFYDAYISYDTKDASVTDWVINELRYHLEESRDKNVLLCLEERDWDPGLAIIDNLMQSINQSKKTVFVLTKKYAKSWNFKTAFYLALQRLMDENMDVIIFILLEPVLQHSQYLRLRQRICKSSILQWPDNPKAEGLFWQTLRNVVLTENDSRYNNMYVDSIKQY

human TLR9 = human TLR9 (Homo sapiens (Human), UniProt Q9NR96); experiment: TLR9 inhibition reporter assay (HEK-Blue SEAP reporter, ODN2006 stimulation); settings: read-out: TLR9 IC50; HEK-Blue cells overexpressing human TLR9, ODN2006 5 nM, SEAP reporter;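 note: SEAP reporter under IFN-β minimal promoter with five NF-κB and AP-1 sites, 22 h incubation, compounds 0.05 nM–50 µM, inhibition relative to agonist plus DMSO versus known inhibitor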
Sequence of human TLR9 (Q9NR96 26-1032): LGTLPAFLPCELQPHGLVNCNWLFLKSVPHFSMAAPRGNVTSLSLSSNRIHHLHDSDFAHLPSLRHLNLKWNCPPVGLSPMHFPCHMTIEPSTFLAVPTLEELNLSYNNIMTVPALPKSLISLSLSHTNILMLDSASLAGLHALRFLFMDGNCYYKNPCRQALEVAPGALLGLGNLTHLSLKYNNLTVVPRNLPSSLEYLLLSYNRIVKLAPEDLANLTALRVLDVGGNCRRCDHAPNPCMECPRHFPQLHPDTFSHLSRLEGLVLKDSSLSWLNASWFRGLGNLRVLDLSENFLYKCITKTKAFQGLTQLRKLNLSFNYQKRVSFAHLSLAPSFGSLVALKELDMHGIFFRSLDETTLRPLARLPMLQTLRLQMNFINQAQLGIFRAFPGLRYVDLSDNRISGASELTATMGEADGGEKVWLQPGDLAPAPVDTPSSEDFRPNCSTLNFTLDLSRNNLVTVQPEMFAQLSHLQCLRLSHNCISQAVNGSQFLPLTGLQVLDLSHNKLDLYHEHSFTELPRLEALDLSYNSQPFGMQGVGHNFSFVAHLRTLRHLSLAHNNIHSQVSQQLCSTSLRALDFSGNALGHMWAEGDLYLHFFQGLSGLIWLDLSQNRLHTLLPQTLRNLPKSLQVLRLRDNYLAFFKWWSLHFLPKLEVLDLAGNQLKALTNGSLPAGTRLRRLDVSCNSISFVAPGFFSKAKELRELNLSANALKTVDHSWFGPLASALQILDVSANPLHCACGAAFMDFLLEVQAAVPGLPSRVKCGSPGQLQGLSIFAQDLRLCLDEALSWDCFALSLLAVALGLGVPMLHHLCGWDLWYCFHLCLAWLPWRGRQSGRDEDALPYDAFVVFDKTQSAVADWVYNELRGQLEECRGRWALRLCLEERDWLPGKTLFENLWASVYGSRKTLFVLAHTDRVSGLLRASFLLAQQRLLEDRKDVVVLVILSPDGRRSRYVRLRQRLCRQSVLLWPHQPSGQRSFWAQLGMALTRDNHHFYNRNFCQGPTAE
Method: HEK-Blue™-cells (Invivogen) overexpressing human TLR7, TLR8 or TLR9 receptors were used for screening inhibitors of these receptors using an inducible SEAP (secreted embryonic alkaline phosphatase) reporter gene under the control of the IFN-β minimal promoter fused to five NF-κB and AP-1-binding sites. Briefly, cells are seeded into Greiner 384 well plates (15000 cells per well for TLR7, 20,000 for TLR8 and 25,000 for TLR9) and then treated with test compounds in DMSO to yield a final dose response concentration range of 0.05 nM-50 μM. After a 30 minute compound pre-treatment at room temperature, the cells are then stimulated with a TLR7 ligand (gardiquimod at a final concentration of 7.5 μM), TLR8 ligand (R848 at a final concentration of 15.9 μM) or TLR9 ligand (ODN2006 at a final concentration of 5 nM) to activate NF-κB and AP-1 which induce the production of SEAP. After a 22 hour incubation at 37° C., 5% CO2, SEAP levels are determined with the addition of HEK-Blue™ Detection reagent (Invivogen), a cell culture medium that allows for detection of SEAP, according to manufacturer's specifications.

Sequence of human TLR7 (Q9NYK1 27-1049): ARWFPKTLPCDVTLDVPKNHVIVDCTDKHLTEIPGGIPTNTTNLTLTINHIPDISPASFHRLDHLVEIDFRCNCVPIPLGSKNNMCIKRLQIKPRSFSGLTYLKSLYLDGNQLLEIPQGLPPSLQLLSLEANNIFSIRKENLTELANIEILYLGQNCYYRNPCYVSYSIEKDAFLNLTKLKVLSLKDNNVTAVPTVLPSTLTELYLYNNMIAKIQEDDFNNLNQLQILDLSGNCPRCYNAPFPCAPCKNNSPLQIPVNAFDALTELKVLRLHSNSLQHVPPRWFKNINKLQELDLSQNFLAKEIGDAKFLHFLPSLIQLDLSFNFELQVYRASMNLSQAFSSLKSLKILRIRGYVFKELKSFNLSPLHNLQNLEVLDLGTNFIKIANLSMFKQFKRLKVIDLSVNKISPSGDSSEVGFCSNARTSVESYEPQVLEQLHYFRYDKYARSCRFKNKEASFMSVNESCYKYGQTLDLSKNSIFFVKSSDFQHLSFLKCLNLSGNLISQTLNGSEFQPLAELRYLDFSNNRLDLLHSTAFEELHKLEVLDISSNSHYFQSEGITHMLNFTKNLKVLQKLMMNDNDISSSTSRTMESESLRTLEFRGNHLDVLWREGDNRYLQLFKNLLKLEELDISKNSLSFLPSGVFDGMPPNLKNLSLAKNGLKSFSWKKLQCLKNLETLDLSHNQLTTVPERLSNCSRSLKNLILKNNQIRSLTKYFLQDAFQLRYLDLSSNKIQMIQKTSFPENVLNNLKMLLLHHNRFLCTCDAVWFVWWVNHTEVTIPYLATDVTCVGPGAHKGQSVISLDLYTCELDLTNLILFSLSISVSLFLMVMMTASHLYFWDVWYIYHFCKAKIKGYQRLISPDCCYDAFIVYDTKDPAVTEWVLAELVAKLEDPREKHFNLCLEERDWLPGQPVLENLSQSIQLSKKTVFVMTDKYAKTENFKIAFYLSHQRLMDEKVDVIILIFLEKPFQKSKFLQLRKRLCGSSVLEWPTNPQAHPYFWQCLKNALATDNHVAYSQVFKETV

With CCc1c(-c2ccc(OC)c(OC)c2)[nH]c2ccc(C(=O)N3CC[C@H](N(C)C)C3)cc12 [Example 30, (S)-(2-(3,4-dimethoxyphenyl)-3-ethyl-1H-indol-5-yl)(3-(dimethylamino)pyrrolidin-1-yl)methanone] the IC50 (human TLR7) was 632 nM, the IC50 (human TLR8) was 191 nM and the IC50 (human TLR9) was 4160 nM.
CCc1c(-c2ccc(OC)c(OC)c2)[nH]c2ccc(C(=O)N3CCCC(C)(C)C3)cc12 [Example 32, (2-(3,4-dimethoxyphenyl)-3-ethyl-1H-indol-5-yl)(3,3-dimethylpiperidin-1-yl)methanone] showed an IC50 (human TLR7) of 1980 nM, an IC50 (human TLR8) of 545 nM and an IC50 (human TLR9) of 5100 nM.
With CCc1c(-c2ccc(OC)c(OC)c2)[nH]c2ccc(C(=O)N3CCCC(C(=O)N(CC)CC)C3)cc12 (stereo not drawn) [Example 33, 1-(2-(3,4-dimethoxyphenyl)-3-ethyl-1H-indole-5-carbonyl)-N,N-diethylpiperidine-3-carboxamide] the IC50 (human TLR7) was 1120 nM, the IC50 (human TLR8) was 897 nM and the IC50 (human TLR9) was 16800 nM.
In the case of CCc1c(-c2ccc(OC)c(OC)c2)[nH]c2ccc(C(=O)N3CCC(C(N)=O)CC3)cc12 [Example 34, 1-(2-(3,4-dimethoxyphenyl)-3-ethyl-1H-indole-5-carbonyl)piperidine-4-carboxamide], the IC50 (human TLR7) is reported as 1180 nM, the IC50 (human TLR8) is reported as 218 nM and the IC50 (human TLR9) is reported as > 50000 nM.
In the case of CCc1c(-c2ccc(OC)c(OC)c2)[nH]c2ccc(C(=O)N3CCCN(C(C)=O)CC3)cc12 [Example 35, 1-(4-(2-(3,4-dimethoxyphenyl)-3-ethyl-1H-indole-5-carbonyl)-1,4-diazepan-1-yl)ethan-1-one], the IC50 (human TLR7) is reported as 595 nM, the IC50 (human TLR8) is reported as 190 nM and the IC50 (human TLR9) is reported as > 50000 nM.
Compound CCc1c(-c2ccc(OC)c(OC)c2)[nH]c2ccc(C(=O)N3CCN(CCc4ccccc4)CC3)cc12 [Example 37, (2-(3,4-dimethoxyphenyl)-3-ethyl-1H-indol-5-yl)(4-phenethylpiperazine-1-yl)methanone] has an IC50 (human TLR7) of 1300 nM, an IC50 (human TLR8) of 14 nM and an IC50 (human TLR9) of 9940 nM.
Work on CCc1c(-c2ccc(OC)c(OC)c2)[nH]c2ccc(C(=O)N3CCN(C(C)C)CC3)cc12 [Example 38, (2-(3,4-dimethoxyphenyl)-3-ethyl-1H-indol-5-yl)(4-isopropylpiperazin-1-yl)methanone] yielded an IC50 (human TLR7) of 299 nM, an IC50 (human TLR8) of 1.2 nM and an IC50 (human TLR9) of 5270 nM.
In the case of CCc1c(-c2ccc(OC)c(OC)c2)[nH]c2ccc(C(=O)N3CCN(CC)CC3)cc12 [Example 39, (2-(3,4-dimethoxyphenyl)-3-ethyl-1H-indol-5-yl)(4-ethylpiperazin-1-yl)methanone], the IC50 (human TLR7) is reported as 367 nM, the IC50 (human TLR8) is reported as 2.2 nM and the IC50 (human TLR9) is reported as 4410 nM.
CCc1c(-c2ccc(OC)c(OC)c2)[nH]c2ccc(C(=O)N3CCN(CCO)CC3)cc12 [Example 40, (2-(3,4-dimethoxyphenyl)-3-ethyl-1H-indol-5-yl)(4-(2-hydroxyethyl)piperazin-1-yl)methanone] was tested, and the IC50 (human TLR7) was 545 nM, the IC50 (human TLR8) was 5.7 nM and the IC50 (human TLR9) was 8700 nM.
With CCc1c(-c2ccc(OC)c(OC)c2)[nH]c2ccc(C(=O)N3CCN(CCOC)CC3)cc12 [Example 41, (2-(3,4-dimethoxyphenyl)-3-ethyl-1H-indol-5-yl)(4-(2-methoxyethyl)piperazin-1-yl)methanone] the IC50 (human TLR7) was 1140 nM, the IC50 (human TLR8) was 12 nM and the IC50 (human TLR9) was 26700 nM.
CCc1c(-c2ccc(OC)c(OC)c2)[nH]c2ccc(C(=O)N3CCN(CCN4CCOCC4)CC3)cc12 [Example 42, (2-(3,4-dimethoxyphenyl)-3-ethyl-1H-indol-5-yl)(4-(2-morpholinoethyl)piperazin-1-yl)methanone] gave an IC50 (human TLR7) of 751 nM, an IC50 (human TLR8) of 15 nM and an IC50 (human TLR9) of 9670 nM.
For CCc1c(-c2ccc(OC)c(OC)c2)[nH]c2ccc(C(=O)NCc3ccco3)cc12 [Example 43, 2-(3,4-dimethoxyphenyl)-3-ethyl-N-(furan-2-ylmethyl)-1H-indole-5-carboxamide], the IC50 (human TLR7) was 2500 nM, the IC50 (human TLR8) was 572 nM and the IC50 (human TLR9) was > 50000 nM.
In the case of CCc1c(-c2ccc(OC)c(OC)c2)[nH]c2ccc(C(=O)NCc3ccccn3)cc12 [Example 44, 2-(3,4-dimethoxyphenyl)-3-ethyl-N-(pyridin-2-ylmethyl)-1H-indole-5-carboxamide], the IC50 (human TLR7) is reported as 1940 nM, the IC50 (human TLR8) is reported as 412 nM and the IC50 (human TLR9) is reported as 44800 nM.
With CCc1c(-c2ccc(OC)c(OC)c2)[nH]c2ccc(C(=O)NCc3csc(-c4ccccc4)n3)cc12 [Example 45, 2-(3,4-dimethoxyphenyl)-3-ethyl-N-((2-phenylthiazol-4-yl)methyl)-1H-indole-5-carboxamide] the IC50 (human TLR7) was 2240 nM, the IC50 (human TLR8) was 1040 nM and the IC50 (human TLR9) was > 50000 nM.
Work on CCc1c(-c2ccc(OC)c(OC)c2)[nH]c2ccc(C(=O)NCc3ccc(N4CCNCC4)cc3)cc12 [Example 46, 2-(3,4-dimethoxyphenyl)-3-ethyl-N-(4-(piperazin-1-yl)benzyl)-1H-indole-5-carboxamide] yielded an IC50 (human TLR7) of 391 nM, an IC50 (human TLR8) of 60 nM and an IC50 (human TLR9) of 931 nM.
Work on CCc1c(-c2ccc(OC)c(OC)c2)[nH]c2ccc(C(=O)NCCN3CCCC3)cc12 [Example 48, 2-(3,4-dimethoxyphenyl)-3-ethyl-N-(2-(pyrrolidin-1-yl)ethyl)-1H-indole-5-carboxamide] yielded an IC50 (human TLR7) of 144 nM, an IC50 (human TLR8) of 4.8 nM and an IC50 (human TLR9) of 2700 nM.
CCc1c(-c2ccc(OC)c(OC)c2)[nH]c2ccc(C(=O)NCc3ccc(N)cc3)cc12 [Example 52, N-(4-aminobenzyl)-2-(3,4-dimethoxyphenyl)-3-ethyl-1H-indole-5-carboxamide] was tested, and the IC50 (human TLR7) was 2380 nM, the IC50 (human TLR8) was 243 nM and the IC50 (human TLR9) was > 50000 nM.
In the case of CCc1c(-c2ccc(OC)c(OC)c2)[nH]c2ccc(C(=O)NCCCN3CCCCC3)cc12 [Example 53, 2-(3,4-dimethoxyphenyl)-3-ethyl-N-(3-(piperidin-1-yl)propyl)-1H-indole-5-carboxamide], the IC50 (human TLR7) is reported as 258 nM, the IC50 (human TLR8) is reported as 8.1 nM and the IC50 (human TLR9) is reported as 2000 nM.
In the case of CCc1c(-c2ccc(OC)c(OC)c2)[nH]c2ccc(C(=O)NCCC3CCCN3C)cc12 (stereo not drawn) [Example 54, 2-(3,4-dimethoxyphenyl)-3-ethyl-N-(2-(1-methylpyrrolidin-2-yl)ethyl)-1H-indole-5-carboxamide], the IC50 (human TLR7) is reported as 206 nM, the IC50 (human TLR8) is reported as 12 nM and the IC50 (human TLR9) is reported as 1810 nM.
For CCc1c(-c2ccc(OC)c(OC)c2)[nH]c2ccc(C(=O)NCCCN3CCN(C)CC3)cc12 [Example 55, 2-(3,4-dimethoxyphenyl)-3-ethyl-N-(3-(4-methylpiperazin-1-yl)propyl)-1H-indole-5-carboxamide], the IC50 (human TLR7) was 954 nM, the IC50 (human TLR8) was 16 nM and the IC50 (human TLR9) was 2090 nM.
Work on CCc1c(-c2ccc(OC)c(OC)c2)[nH]c2ccc(C(=O)N3CCC(N4CCCCC4)CC3)cc12 [Example 56, [1,4′-bipiperidin]-1′-yl(2-(3,4-dimethoxyphenyl)-3-ethyl-1H-indol-5-yl)methanone] yielded an IC50 (human TLR7) of 112 nM, an IC50 (human TLR8) of 13 nM and an IC50 (human TLR9) of 2190 nM.
In the case of CCc1c(-c2ccc(OC)c(OC)c2)[nH]c2ccc(C(=O)N3CCN(c4ncccn4)CC3)cc12 [Example 57, (2-(3,4-dimethoxyphenyl)-3-ethyl-1H-indol-5-yl)(4-(pyrimidin-2-yl)piperazin-1-yl)methanone], the IC50 (human TLR7) is reported as 577 nM, the IC50 (human TLR8) is reported as 218 nM and the IC50 (human TLR9) is reported as > 50000 nM.
CCc1c(-c2ccc(OC)c(OC)c2)[nH]c2ccc(C(=O)N3CCN(C(=O)c4ccco4)CC3)cc12 [Example 60, (2-(3,4-dimethoxyphenyl)-3-ethyl-1H-indol-5-yl)(4-(furan-2-carbonyl)piperazin-1-yl)methanone] was tested, and the IC50 (human TLR7) was 206 nM, the IC50 (human TLR8) was 115 nM and the IC50 (human TLR9) was > 50000 nM.
For CCc1c(-c2ccc(OC)c(OC)c2)[nH]c2ccc(C(=O)N3CCN(c4ccc(C(F)(F)F)cn4)CC3)cc12 [Example 61, (2-(3,4-dimethoxyphenyl)-3-ethyl-1H-indol-5-yl)(4-(5-(trifluoromethyl)pyridin-2-yl)piperazin-1-yl)methanone], the IC50 (human TLR7) was 4120 nM, the IC50 (human TLR8) was 1620 nM and the IC50 (human TLR9) was 10200 nM.
In the case of CCc1c(-c2ccc(OC)c(OC)c2)[nH]c2ccc(C(=O)N3CCNC(=O)C3)cc12 [Example 62, 4-(2-(3,4-dimethoxyphenyl)-3-ethyl-1H-indole-5-carbonyl)piperazin-2-one], the IC50 (human TLR7) is reported as 493 nM, the IC50 (human TLR8) is reported as 381 nM and the IC50 (human TLR9) is reported as > 50000 nM.
CCc1c(-c2ccc(OC)c(OC)c2)[nH]c2ccc(C(=O)N3CCC(n4c(=O)[nH]c5ccccc54)CC3)cc12 [Example 63, 1-(1-(2-(3,4-dimethoxyphenyl)-3-ethyl-1H-indole-5-carbonyl)piperidin-4-yl)-1,3-dihydro-2H-benzo[d]imidazol-2-one] was tested, and the IC50 (human TLR7) was 801 nM, the IC50 (human TLR8) was 464 nM and the IC50 (human TLR9) was 13600 nM.
CCc1c(-c2ccc(OC)c(OC)c2)[nH]c2ccc(C(=O)N3CCCN(c4ncccn4)CC3)cc12 [Example 64, (2-(3,4-dimethoxyphenyl)-3-ethyl-1H-indol-5-yl)(4-(pyrimidin-2-yl)-1,4-diazepan-1-yl)methanone] was tested, and the IC50 (human TLR7) was 1280 nM, the IC50 (human TLR8) was 2190 nM and the IC50 (human TLR9) was 16600 nM.
Work on CCc1c(-c2ccc(OC)c(OC)c2)[nH]c2ccc(C(=O)N3CCCN(c4ccccn4)CC3)cc12 [Example 65, (2-(3,4-dimethoxyphenyl)-3-ethyl-1H-indol-5-yl)(4-(pyridin-2-yl)-1,4-diazepan-1-yl)methanone] yielded an IC50 (human TLR7) of 1210 nM, an IC50 (human TLR8) of 1630 nM and an IC50 (human TLR9) of 7240 nM.
For CCc1c(-c2ccc(OC)c(OC)c2)[nH]c2ccc(C(=O)N3CCc4ccccc43)cc12 [Example 66, (2-(3,4-dimethoxyphenyl)-3-ethyl-1H-indol-5-yl)(indolin-1-yl)methanone], the IC50 (human TLR7) was 3940 nM, the IC50 (human TLR8) was 1170 nM and the IC50 (human TLR9) was > 50000 nM.
For CCc1c(-c2ccc(OC)c(OC)c2)[nH]c2ccc(C(=O)NC(CO)CO)cc12 [Example 67, N-(1,3-dihydroxypropan-2-yl)-2-(3,4-dimethoxyphenyl)-3-ethyl-1H-indole-5-carboxamide], the IC50 (human TLR7) was 1770 nM, the IC50 (human TLR8) was 412 nM and the IC50 (human TLR9) was > 50000 nM.
